Reference: patent publication US8551988B2, “Benzimidazole derivatives: preparation and pharmaceutical applications” (Mei Pharma, Inc., priority 2003, dated 2013)
Where two headings read alike, the source gives them in different places.

Tests used:
[1] = target: HDAC8 enzyme (recombinant GST-HDAC8) (Homo sapiens (Human), UniProt Q9BY41); assay: In vitro HDAC assay (BIOMOL fluorescent-based HDAC activity assay), HDAC8; type: biochemical
Method: (§1) The assay has been carried out in 96 well format and the BIOMOL fluorescent-based HDAC activity assay has been applied. […] Flur de lys Developer was added and the reaction was incubated for 10 min. Briefly, deacetylation of the substrate sensitizes it to the developer, which then generates a fluorophore (symbol). The fluorophore is excited with 360 nm light and the emitted light (460 nm) is detected on a fluorometric plate reader (Tecan Ultra Microplate detection system, Tecan Group Ltd.).
(§2) The analytical software, Prism 3.0 has been used to generate IC50 from a series of data.

[2] = target: HDAC1 enzyme (recombinant GST-HDAC1) (Homo sapiens (Human), UniProt Q13547); assay: In vitro HDAC assay (BIOMOL fluorescent-based HDAC activity assay), HDAC1; type: biochemical
Sequence of HDAC1 enzyme (recombinant GST-HDAC1) (Q13547 whole entry): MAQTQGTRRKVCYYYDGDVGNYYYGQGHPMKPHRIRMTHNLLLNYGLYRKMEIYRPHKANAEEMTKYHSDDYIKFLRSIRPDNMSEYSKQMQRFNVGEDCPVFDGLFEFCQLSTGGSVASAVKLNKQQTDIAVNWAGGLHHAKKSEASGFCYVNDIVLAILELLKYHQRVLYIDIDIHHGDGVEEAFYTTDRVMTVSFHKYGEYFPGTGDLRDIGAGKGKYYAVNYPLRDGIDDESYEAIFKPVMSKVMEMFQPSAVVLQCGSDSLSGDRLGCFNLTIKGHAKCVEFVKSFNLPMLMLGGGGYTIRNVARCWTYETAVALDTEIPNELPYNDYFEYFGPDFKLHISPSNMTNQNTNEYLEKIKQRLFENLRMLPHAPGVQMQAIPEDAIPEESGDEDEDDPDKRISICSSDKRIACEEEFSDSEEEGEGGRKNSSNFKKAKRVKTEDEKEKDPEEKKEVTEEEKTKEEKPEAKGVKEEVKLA
Method: as §1, §2

[3] = read-out: HDAC8 Enzyme Activity IC50
[4] = read-out: HDAC1 Enzyme Activity IC50
[5] = Free base, read-out: IC50 (HDAC8)
[6] = Free base, read-out: IC50 (HDAC1)

Sequence of HDAC8 enzyme (recombinant GST-HDAC8) (Q9BY41 whole entry): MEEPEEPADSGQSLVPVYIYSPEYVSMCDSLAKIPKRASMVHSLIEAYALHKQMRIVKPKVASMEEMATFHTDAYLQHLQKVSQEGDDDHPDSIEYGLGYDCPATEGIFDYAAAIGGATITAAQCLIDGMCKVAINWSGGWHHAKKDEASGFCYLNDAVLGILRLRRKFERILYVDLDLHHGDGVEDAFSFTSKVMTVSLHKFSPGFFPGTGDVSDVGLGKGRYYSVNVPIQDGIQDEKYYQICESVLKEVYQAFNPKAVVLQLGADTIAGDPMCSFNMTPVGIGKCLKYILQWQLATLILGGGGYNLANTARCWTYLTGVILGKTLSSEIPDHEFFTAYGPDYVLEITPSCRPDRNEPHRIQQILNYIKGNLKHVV

| Structure (SMILES) | IC50 [1, 3] [nM] | IC50 [2, 4] [nM] | other results |
| --- | --- | --- | --- |
| COc1cc(Cn2c(CCc3ccccc3)nc3cc(/C=C/C(=O)NO)ccc32)cc(OC)c1OC [Compound 2, N-Hydroxy-3-[1-(3,4,5-trimethoxybenzyl)-2-(2-phenyl-ethyl)-1H-benzimidazol-5-yl]-acrylamide] | 355 | 26 | IC50 [1, 5]: 267 nM; IC50 [2, 6]: 43 nM; IC50 ([2]; Salt of CF3COOH, read-out: IC50 (HDAC1)): 49 nM |
| COc1cc(-c2nc3cc(/C=C/C(=O)NO)ccc3n2CC(O)CO)ccc1OCc1ccccc1 (centres unmarked) [Compound 7, N-Hydroxy-3-[2-(4-benzyloxy-3-methoxy-phenyl)-1-(2,3-hydroxy-propyl)-1H-benzimidazole-5-yl]-acrylamide] | 336 | 1520 |  |
| O=C(/C=C/c1ccc2c(c1)nc(-c1ccccn1)n2CC(O)CO)NO (centres unmarked) [Compound 9, N-Hydroxy-3-[1-(2,3-hydroxy-propyl)-2-(2-pyridyl)-1H-benzimidazol-5-yl]-acrylamide] | 344 | 1340 |  |
| O=C(/C=C/c1ccc2c(c1)nc(CCc1ccccc1)n2Cc1ccccn1)NO [Compound 16, N-Hydroxy-3-(2-phenethyl-1-(pyridin-2-yl)methyl-1H-benzimidazol-5-yl)-acrylamide] | 366 | 194 |  |
| CN(C)CC(C)(C)Cn1c(CCc2ccccc2)nc2cc(/C=C/C(=O)NO)ccc21 [Compound 17, N-Hydroxy-3-[1-(3-Dimethylamino-2,2-dimethyl-propyl)-2-phenethyl-1H-benzimidazol-5-yl]-acrylamide] |  |  | IC50 [1, 5]: 353 nM; IC50 [2, 6]: 29 nM; IC50 ([2]; Salt of HCl, read-out: IC50 (HDAC1)): 44 nM; IC50 ([2]; Salt of Methane sulfonic acid, read-out: IC50 (HDAC1)): 51 nM |
| O=C(/C=C/c1ccc2c(c1)nc(COCc1ccccc1)n2CCCO)NO [Compound 19] | 145 | 165 |  |
| O=C(/C=C/c1ccc2c(c1)nc(CCc1ccccc1)n2CCc1ccccc1)NO [Compound 26, N-Hydroxy-3-(1,2-Diphenethyl-1H-benzimidazol-5-yl]-acrylamide] |  | 876 |  |
| CC(C)Cc1nc2cc(CCC(=O)NO)ccc2n1CCCO [Compound 29, N-Hydroxy-3-[1-(3-Hydroxy-propyl)-2-isobutyl-1H-benzimidazol-5-yl]-propionamide] | 34000 |  |  |
| CCCn1c(CCc2ccccc2)nc2cc(/C=C/C(=O)NO)ccc21 [Compound 36, N-Hydroxy-3-(2-phenethyl-1-propyl-1H-benzimidazol-5-yl}-acrylamide] |  | 227 |  |
| CCn1cnc2cc(/C=C/C(=O)NO)ccc21 [Compound 39, N-Hydroxy-3-(1-Ethyl-1H-benzimidazol-5-yl)-acrylamide] |  | 1220 |  |
| O=C(NO)c1ccc2c(c1)nc(CCc1ccccc1)n2CCCO [Compound 40, 1-(3-Hydroxy-propyl)-2-phenethyl-1H-benzimidazol-5-carboxylic acid hydroxyamide] | 441 |  |  |
| O=C(/C=C/c1ccc2[nH]c(CCc3ccccc3)nc2c1)NO [Compound 50, N-Hydroxy-3-(2-phenethyl-1H-benzimidazol-5-yl)-acrylamide] |  | 173 |  |
| O=C(/C=C/c1ccc2[nH]cnc2c1)NO [Compound 51, N-Hydroxy-3-(1H-benzimidazol-5-yl)-acrylamide] |  | 896 |  |
| CN(C)CCCCn1c(CCc2ccccc2)nc2cc(/C=C/C(=O)NO)ccc21 [Compound 57, N-Hydroxy-3-[1-(4-dimethylamino-butyl)-2-phenethyl-1H-benzimidazol-5-yl]-acrylamide] |  | 153 |  |
| CCn1c(CNCc2ccccc2)nc2cc(/C=C/C(=O)NO)ccc21 [Compound 64, N-Hydroxy-3-[2-(benzylamino-methyl)-ethyl-1H-benzimidazol-5-yl]-acrylamide] |  | 230 |  |
| O=C(/C=C/c1ccc2c(c1)nc(CCc1ccccc1)n2CCCN1CCCC1)NO [Compound 82, N-Hydroxy-3-[2-phenethyl-1-(3-pyrrolidin-1-yl-propyl)-1H-benzimidazol-5-yl]-acrylamide] |  | 304 |  |
| CN(C)CC(C)(C)Cn1c(SCc2ccccc2)nc2cc(/C=C/C(=O)NO)ccc21 [Compound 89, N-Hydroxy-3-[2-benzylsulfanyl-1-(3-dimethylamino-2-2,dimethyl-propyl)-1H-benzimidazol-5-yl]-acrylamide] |  | 116 |  |
| CN(C)CC(C)(C)Cn1c([S+]([O-])Cc2ccccc2)nc2cc(/C=C/C(=O)NO)ccc21 (centres unmarked) [Compound 91] |  | 30 |  |
| CCn1c(CCCc2c[nH]c3ccccc23)nc2cc(/C=C/C(=O)NO)ccc21 [Compound 93, N-Hydroxy-3-(1-ethyl-2-[3-(1H-indol-3-yl)-propyl]-1H-benzimidazol-5-yl)-acrylamide] |  | 65 |  |
| COc1cccc(CCc2nc3cc(/C=C/C(=O)NO)ccc3n2CC(C)(C)CN(C)C)c1 [Compound 94, N-Hydroxy-3-(1-(3-dimethylamino-2,2-dimethyl-propyl)-2-[2-(3-methoxy-phenyl)-ethyl]-1H-benzimidazol-5-yl)-acrylamide] |  | 52 |  |

Second part, led by results:

| IC50 [1, 3] [nM] | IC50 [2, 4] [nM] | Structure (SMILES) | other results |
| --- | --- | --- | --- |
| 119 | 51 | CC(Cc1nc2cc(/C=C/C(=O)NO)ccc2n1CCCO)c1ccccc1 (centres unmarked) [Compound 1, N-Hydroxy-3-[1-(3-hydroxy-propyl)-2-(2-phenyl-propyl)-1H-benzimidazol-5-yl]-acrylamide] |  |
| 790 | 1340 | COc1cc(-c2nc3cc(/C=C/C(=O)NO)ccc3n2CCCO)ccc1OCc1ccccc1 [Compound 4, N-Hydroxy-3-[2-(4-benzyloxy-3-methoxy-phenyl)-1-(3-hydroxy-propyl)-1H-benzimidazole-5-yl]-acrylamide] |  |
| 401 | 4320 | COc1ccc(-c2nc3cc(/C=C/C(=O)NO)ccc3n2CCO)cc1 [Compound 5, N-Hydroxy-3-[1-(2-hydroxy-ethyl)-2-(4-methoxy-phenyl)-1H-benzimidazole-5-yl]-acrylamide] |  |
| 454 |  | O=C(/C=C/c1ccc2c(c1)nc(CCc1ccccc1)n2CC(O)CO)NO (centres unmarked) [Compound 8] |  |
| 883 | 2660 | O=C(/C=C/c1ccc2c(c1)nc(-c1ccncc1)n2CCO)NO [Compound 10, N-Hydroxy-3-[1-(2-hydroxy-ethyl)-2-(4-pyridyl)-1H-benzimidazol-5-yl]-acrylamide] |  |
| 161 | 846 | O=C(/C=C/c1ccc2c(c1)nc(-c1ccncc1)n2CCCO)NO [Compound 11, N-Hydroxy-3-[1-(3-hydroxy-propyl)-2-(4-pyridyl)-1H-benzimidazol-5-yl]-acrylamide] |  |
| 202 | 131 | O=C(/C=C/c1ccc2c(c1)nc(CCc1ccccc1)n2Cc1cccnc1)NO [Compound 12, N-Hydroxy-3-[1-(3-pyridylmethyl)-2-(2-phenyl-ethyl)-1H-benzimidazol-5-yl]-acrylamide] |  |
| 141 |  | O=C(/C=C/c1ccc2c(c1)nc(-c1ccccn1)n2CCCO)NO [Compound 13, N-Hydroxy-3-[1-(3-hydroxy-propyl)-2-(2-pyridyl)-1H-benzimidazol-5-yl]-acrylamide] |  |
| 251 | 171 | O=C(/C=C/c1ccc2c(c1)nc(CCc1ccccc1)n2CCCO)NO [Compound 14, N-Hydroxy-3-[1-(3-hydroxy-propyl)-2-phenethyl-1H-benzimidazol-5-yl]-acrylamide] |  |
| 313 |  | COCCCn1c(CCc2ccccc2)nc2cc(/C=C/C(=O)NO)ccc21 [Compound 15] |  |
| 290 |  | O=C(/C=C/c1ccc2c(c1)nc(CCc1ccccc1)n2CCc1ccccn1)NO [Compound 18] |  |
| 234 |  | CC(C)Cc1nc2cc(/C=C/C(=O)NO)ccc2n1CCc1ccccn1 [Compound 22] |  |
| 300 |  | O=C(/C=C/c1ccc2c(c1)nc(COCc1ccccc1)n2CCc1cccnc1)NO [Compound 28] |  |
|  | 897 | CCCn1cnc2cc(/C=C/C(=O)NO)ccc21 [Compound 37, N-Hydroxy-3-(1-propyl-1H-benzimidazol-5-yl}-acrylamide] |  |
| 159 |  | CC(Cc1nc2cc(/C=C/C(=O)NO)ccc2n1CCc1cccnc1)c1ccccc1 (centres unmarked) [Compound 41] |  |
|  | 1400 | Cn1cnc2cc(/C=C/C(=O)NO)ccc21 [Compound 49, N-Hydroxy-3-(1-methyl-1H-benzimidazol-5-yl)-acrylamide] |  |
|  | 160 | Cn1c(CCCc2ccccc2)nc2cc(/C=C/C(=O)NO)ccc21 [Compound 52, N-Hydroxy-3-[1-methyl-2-(3-phenyl-propyl)-1H-benzimidazol-5-yl]-acrylamide] |  |
|  | 100 | Cn1c(CNC(=O)Cc2ccccc2)nc2cc(/C=C/C(=O)NO)ccc21 [Compound 54] |  |
|  | 116 | Cn1c(CNCc2ccccc2)nc2cc(/C=C/C(=O)NO)ccc21 [Compound 60, N-Hydroxy-3-[2-(benzylamino-methyl)-1-methyl-1H-benzimidazol-5-yl]-acrylamide] |  |
|  | 162 | CN(C)CCCn1c(CCc2ccccc2)nc2cc(/C=C/C(=O)NO)ccc21 [Compound 63, N-Hydroxy-3-[1-(3-dimethylamino-propyl)-2-phenethyl-1H-benzimidazol-5-yl]-acrylamide] |  |
|  | 371 | CCn1c(CCNCc2ccccc2)nc2cc(/C=C/C(=O)NO)ccc21 [Compound 74, N-Hydroxy-3-[2-(2-benzylamino-ethyl)-1-ethyl-1H-benzimidazol-5-yl]-acrylamide] |  |
|  | 400 | CN(C)CC(C)(C)Cn1c(CCc2cccnc2)nc2cc(/C=C/C(=O)NO)ccc21 [Compound 86, N-Hydroxy-3-[1-(3-Dimethylamino-2,2-dimethyl-propyl)-2-(2-pyridin-3-yl-ethyl)-1H-benzimidazol-5-yl]-acrylamide] |  |
|  | 168 | CCn1c(Cc2ccccc2)nc2cc(/C=C/C(=O)NO)ccc21 [Compound 92, N-Hydroxy-3-(2-benzyl-1-ethyl-1H-benzimidazol-5-yl)-acrylamide] |  |
|  | 125 | CCn1c(CCCOc2ccccc2)nc2cc(/C=C/C(=O)NO)ccc21 [Compound 96, N-Hydroxy-3-[1-ethyl-2-(3-phenoxy-propyl)-1H-benzimidazol-5-yl]-acrylamide] |  |
